Reference: patent US12624057B2, “Bisphosphonate quinolone conjugates and uses thereof” (BIOVINC, LLC, priority 2016, dated 2026)
“Also recorded” adds a separate entry of the source.

What was measured:
[1] = test system: planktonic S. aureus clinical osteomyelitis strains (MSSA and MRSA); test: MIC by microdilution against planktonic clinical S. aureus strains; type: cell-based, Staphylococcus aureus; details: for antimicrobial activity / MIC against planktonic S. aureus (in words): microdilution, 24 h
Method: (§1) Subsequently, the plate was incubated for 24 h/37° C. in a shaker to obtain optimal conditions for microbial growth and to prevent bacteria from forming biofilms. After incubation, the absorbance was measured once again. The following control samples were established: negative control sample one: sterile medium without microbes; negative control sample two: sterile medium without microbes implemented with DMSO (dimethyl sulfoxide, Sigma-Aldritch) to final concentration of 1% (v/v); positive control sample one: medium+microbes with no compound tested; positive control sample two: medium+microbes with no compound tested but implemented with DMSO to final concentration of 1% (v/v). […] To assess relative number of cells, the following calculations were performed. […] Next, the relative number of cells subjected to incubation with tested compounds were counted as follows: […].
as §1, with “Evaluation of the MIC of tested compounds against planktonic forms of clinical staphylococcal strains analyzed: To assess the impact of parent antibiotic and conjugates on microbial growth, 100 μl of microbial solutions of density 1×10^5 CFU/ml were placed into wells of 96-well test plates together with appropriate concentrations of tested compounds. […] Subsequently,” for “Subsequently,”, “plates were” for “the plate was”, “hrs/37°” for “h/37°”, “Sigma-Aldrich)” for “Sigma-Aldritch)”
The occurrence of opacification or lack of opacification of media was proof of pathogen growth or lack of growth, respectively. Additionally, bacterial solutions were cultured on the appropriate stable medium. Growth or lack of growth of bacterial colonies together with above-mentioned results from liquid cultures served as confirmation of results obtained spectrophotometrically.

[2] = Hydroxyapatite (HA) binding assay, spectroscopic analysis of supernatant; type: physicochemical; details: supernatant at 0 hr versus 24 hrs, TSB medium
Method: Solutions containing BP-ciprofloxacin and HA spherules were introduced to wells of 24-well plate. […] Plates were shaken automatically in the spectrometer prior to assessment. Next, plates were left for 24 h/37° C./shaking. After 24 hours, absorbance was measured once again. To assess the relative concentration of the conjugate at 0 hr and 24 hrs, values of absorbance taken in the beginning and at the end of experiment were compared.
Spectroscopic analysis of 6 and 11 in Tryptic Soy Broth (TSB) microbiological media with the addition of HA spherules: Various conjugate concentrations were introduced to HA powder (spherules) suspended in TSB microbiological medium. Solutions containing BP-ciprofloxacin an HA spherules were introduced to wells of a 24-well plate. […] Plates were shaken automatically in the spectrometer prior to assessment. Next, plates were left for 24 hrs/37° C./shaking. After 24 hrs, absorbance was measured once again. To assess the relative concentration of the conjugate at 0 hr and 24 hrs, values of absorbance taken in the beginning and at the end of experiment were compared. The excitation slit, emission slit, integration time, and increment were optimized based on the concentration of samples.

[3] = test system: S. aureus 6538; test: Preventative assay, HA spherules pretreated then inoculated with S. aureus; type: cell-based, Staphylococcus aureus
Method: Preventative ability of BP-ciprofloxacin conjugate to inhibit S. aureus 6538 adherence to HA spherules: Various BP-ciprofloxacin concentrations were introduced to HA powder (spherules) suspended in TSB microbiological medium. Solutions containing conjugate and HA spherules were introduced to wells of 24-well plates. Final concentrations of powder were 10 mg/1 mL, while final concentrations of the conjugate were 0.12-250 mg/L. Suspensions were left for 24 h/37° C./shaking. After 24 h, suspensions were removed from the wells and impulse-centrifuged to precipitate HA powder. Next, supernatant was very gently discarded and a fresh 1 mL of S. aureus of density 10^5 cfu/mL was introduced to the HA spherules. Subsequently, this solution was shaken, absorbance was measured using 580 nm wavelength and left for 24 h/37° C./shaking. After incubation absorbance was measured again and values from 0 hr and 24 hrs were compared to assess reduction of bacterial growth with regard to control sample one (bacterial suspension but no spherules) and control sample two (bacterial suspension+spherules but with no conjugate added). Additionally, solutions were impulse-centrifuged, supernatant was gently discarded, while bacteria-containing HA spherules were culture plated as before and quantitatively assessed. […]

Compound	MIC compared with mean bactericidal concentration (MBC) ([1]; AST data)	antimicrobial activity / MIC against planktonic S. aureus (in words) [1]	antimicrobial activity / MIC against planktonic S. aureus (in words) ([1]; listed as BCC)	antimicrobial activity / MIC against planktonic S. aureus (in words) ([1]; listed as BP-ciprofloxacin)	adsorption to hydroxyapatite (HA) [2]	adsorption to hydroxyapatite (HA) ([2]; listed as BCC)	adsorption to hydroxyapatite (HA) ([2]; listed as BP-ciprofloxacin)	concentration giving the only significant reduction [3]
O=C(O)c1cn(C2CC2)c2cc(N3CCN(C(=O)Oc4ccc(CC(P(=O)(O)O)P(=O)(O)O)cc4)CC3)c(F)cc2c1=O [Compound 6, 1-cyclopropyl-7-(4-((4-(2,2-diphosphonoethyl)phenoxy)carbonyl)piperazin-1-yl)-6-fluoro-4-oxo-1,4-dihydroquinoline-3-carboxylic acid]	equivalent to their mean bactericidal concentrations	effective bactericidal activity	retains significant bactericidal activity	slightly greater concentrations of conjugate required to reach MIC than ciprofloxacin alone	significant adsorption and retention of the conjugate by HA; also recorded: effective adsorption and retention to HA spherules	taken up by the HA beads; also recorded: confirms adsorption of conjugate to HA	significant adsorption and retention of the conjugate by HA	
O=C(O)c1cn(C2CC2)c2cc(N3CCNCC3)c(F)cc2c1=O [ciprofloxacin, reference compound]								400 µg/mL
